This passage reports IC50 results from patent US6207669A, “Bicyclic heteroaromatic compounds as protein tyrosine kinase inhibitors” (Glaxo Wellcome Inc., priority 1996, dated 2001).

In experiment [1] the target is T1, EGFr isolated from solubilised A431 cell membranes (Homo sapiens, UniProt P00533).
T1 construct: EGFr isolated from solubilised A431 cell membranes; endogenous in cells; host or cells: A431 cells (solubilised membranes)
As to the kind of experiment: Substrate phosphorylation assay, EGFr. In kind it is biochemical. As to conditions: 30 minutes, room temperature, ATP and peptide at Km. The method, then:
(§1) The substrate phosphorylation assays use baculovirus expressed, recombinant constructs of the intracellular domains of c-erbB-2 and c-erbB4 that are constitutively active and EGFr isolated from solubilised A431 cell membranes. The method measures the ability of the isolated enzymes to catalyse the transfer of the γ-phosphate from ATP onto tyrosine residues in a biotinylated synthetic peptide (Biotin-GluGluGluGluTyrPheGluLeuVal). The enzyme is incubated for 30 minutes, at room temperature, with 10 mM […], ATP and peptide at Km concentrations, and test compound (diluted from a 5 mM stock in DMSO, final DMSO concentration is 2%) in 40 mM HEPES buffer, pH 7.4. The reaction is stopped by the addition of EDTA (final concentration 0.15 mM) and a sample is transferred to a streptavidin-coated 96-well plate. The plate is washed and the level of phosphotyrosine on the peptide is determined using a Europium-labelled antiphosphotyrosine antibody and quantified with a time-resolved fluorescence technique. The results are shown in Table 1 as the IC50 values in nM.

For experiment [2], the target named is T2, c-erbB-2 (baculovirus expressed, recombinant intracellular domain) (Homo sapiens, UniProt P04626).
T2 construct: recombinant constructs of the intracellular domains of c-erbB-2 and c-erbB4 that are constitutively active; made in house
T2 sequence (P04626 676-1255 limits assumed): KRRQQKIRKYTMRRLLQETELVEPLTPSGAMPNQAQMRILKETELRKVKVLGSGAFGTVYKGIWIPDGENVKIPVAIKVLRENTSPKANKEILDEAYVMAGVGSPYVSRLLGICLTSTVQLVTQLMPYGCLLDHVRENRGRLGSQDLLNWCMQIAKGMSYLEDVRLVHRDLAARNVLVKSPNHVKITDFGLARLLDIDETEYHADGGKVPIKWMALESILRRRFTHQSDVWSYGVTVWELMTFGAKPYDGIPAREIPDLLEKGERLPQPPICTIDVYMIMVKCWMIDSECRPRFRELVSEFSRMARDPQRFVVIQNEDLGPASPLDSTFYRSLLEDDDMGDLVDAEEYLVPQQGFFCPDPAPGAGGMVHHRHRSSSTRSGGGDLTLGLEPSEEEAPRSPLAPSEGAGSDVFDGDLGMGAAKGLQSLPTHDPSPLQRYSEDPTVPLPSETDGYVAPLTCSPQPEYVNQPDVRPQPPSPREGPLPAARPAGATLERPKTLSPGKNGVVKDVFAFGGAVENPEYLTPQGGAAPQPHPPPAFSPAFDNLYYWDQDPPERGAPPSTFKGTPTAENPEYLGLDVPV
The experiment can be described thus: Substrate phosphorylation assay, c-erbB-2. The experiment is classed as biochemical. As to conditions: 30 minutes, room temperature, ATP and peptide at Km. The protocol: The substrate phosphorylation assays use baculovirus expressed, recombinant constructs of the intracellular domains of c-erbB-2 and c-erbB4 that are constitutively active and EGFr isolated from solubilised A431 cell membranes. […] The reaction is stopped by the addition of EDTA (final concentration 0.15 mM) and a sample is transferred to a streptavidin-coated 96-well plate. The plate is washed and the level of phosphotyrosine on the peptide is determined using a Europium-labelled antiphosphotyrosine antibody and quantified with a time-resolved fluorescence technique. The results are shown in Table 1 as the IC50 values in nM.

In experiment [3] the target is T3, c-erbB4 (baculovirus expressed, recombinant intracellular domain) (Homo sapiens, UniProt Q15303).
T3 construct: recombinant constructs of the intracellular domains of c-erbB-2 and c-erbB4 that are constitutively active; made in house
T3 sequence (Q15303 676-1308 limits assumed): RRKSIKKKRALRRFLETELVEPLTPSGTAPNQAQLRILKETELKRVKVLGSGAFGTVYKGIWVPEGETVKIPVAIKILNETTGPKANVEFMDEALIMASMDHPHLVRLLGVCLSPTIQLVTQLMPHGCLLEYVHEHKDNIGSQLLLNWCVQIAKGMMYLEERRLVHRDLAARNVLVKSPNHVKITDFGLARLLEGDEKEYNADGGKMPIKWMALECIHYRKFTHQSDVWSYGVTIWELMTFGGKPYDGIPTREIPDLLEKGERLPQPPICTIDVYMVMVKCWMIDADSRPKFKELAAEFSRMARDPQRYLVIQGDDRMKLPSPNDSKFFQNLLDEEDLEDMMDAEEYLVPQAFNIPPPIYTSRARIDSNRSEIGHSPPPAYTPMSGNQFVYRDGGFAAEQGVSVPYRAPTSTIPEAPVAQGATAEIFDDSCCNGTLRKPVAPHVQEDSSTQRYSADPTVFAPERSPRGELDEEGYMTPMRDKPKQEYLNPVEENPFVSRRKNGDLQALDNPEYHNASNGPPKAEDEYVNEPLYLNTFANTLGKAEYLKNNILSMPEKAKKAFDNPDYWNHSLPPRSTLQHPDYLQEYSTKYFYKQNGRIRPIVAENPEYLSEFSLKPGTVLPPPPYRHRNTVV
As to the kind of experiment: Substrate phosphorylation assay, c-erbB4. As to conditions: 30 minutes, room temperature, ATP and peptide at Km; read-out: Substrate Phosphorylation erbB-4 IC50. In kind it is biochemical. The method, then:
as §1

In experiment [4] the test system is HB4a cell line transformed by over-expression of c-erbB-2. The experiment can be described thus: Cell proliferation assay, HB4a erbB-2. The experiment is classed as cell-based. As to conditions: Homo sapiens, 96 h, 4 days, methylene blue staining. The method, then:
(§2) The cell proliferation assay uses an immortalised human breast epithelial cell line (HB4a) which has been transformed by over-expression of c-erbB-2. Growth of these cells in low serum is dependent upon the c-erbB-2 tyrosine kinase activity. […] Cells are plated at 3000/well in 96-well plates in […] medium and allowed to attach overnight. test compound is added in 0.1 ml medium, with a final concentration of 0.5% DMSO, and the plates incubated for 4 days at 37° C. The cells are then examined microscopically for evidence of morphological detransformation and cell mass is estimated by staining with methylene blue and measuring the absorbance at 620 nm. […] Activity against a range of naturally occurring EGFr or c-erbB-2 over-expressing human tumour cell lines (BT474-breast, HN5-head and neck, N87 gastric and Calu3-lung) is assessed with selected compounds by the same methodology.

The subject of experiment [5] is HB4a cell line transfected with ras. As to the kind of experiment: Cell proliferation assay, HB4a ras. In kind it is cell-based. As to conditions: Homo sapiens, 96 h, 4 days, methylene blue staining, general toxicity comparison.
In experiment [6] the test system is BT474-breast tumour cell line. The experiment can be described thus: Cell proliferation assay, BT474. In kind it is cell-based. As to conditions: Homo sapiens, BT-474, 96 h; 4 days, methylene blue staining. The protocol: as §2
Experiment [7] relates to N87 gastric tumour cell line. As to the kind of experiment: Cell proliferation assay, N87. In kind it is cell-based. The conditions noted are these: Homo sapiens, 96 h; 4 days, methylene blue staining. The protocol: as §2
Experiment [8] deals with Calu3-lung tumour cell line. The experiment can be described thus: Cell proliferation assay, Calu3. In kind it is cell-based. The conditions noted are these: Homo sapiens, Calu-3, 96 h; 4 days, methylene blue staining. The method, then:
as §2

Experiment [9] has as its system HN5-head and neck tumour cell line. The experiment can be described thus: Cell proliferation assay, HN5. The experiment is classed as cell-based. The conditions noted are these: Homo sapiens, 96 h, read-out: Cell Proliferation HN5 IC50. The protocol:
as §2

T1 sequence (P00533 25-1210): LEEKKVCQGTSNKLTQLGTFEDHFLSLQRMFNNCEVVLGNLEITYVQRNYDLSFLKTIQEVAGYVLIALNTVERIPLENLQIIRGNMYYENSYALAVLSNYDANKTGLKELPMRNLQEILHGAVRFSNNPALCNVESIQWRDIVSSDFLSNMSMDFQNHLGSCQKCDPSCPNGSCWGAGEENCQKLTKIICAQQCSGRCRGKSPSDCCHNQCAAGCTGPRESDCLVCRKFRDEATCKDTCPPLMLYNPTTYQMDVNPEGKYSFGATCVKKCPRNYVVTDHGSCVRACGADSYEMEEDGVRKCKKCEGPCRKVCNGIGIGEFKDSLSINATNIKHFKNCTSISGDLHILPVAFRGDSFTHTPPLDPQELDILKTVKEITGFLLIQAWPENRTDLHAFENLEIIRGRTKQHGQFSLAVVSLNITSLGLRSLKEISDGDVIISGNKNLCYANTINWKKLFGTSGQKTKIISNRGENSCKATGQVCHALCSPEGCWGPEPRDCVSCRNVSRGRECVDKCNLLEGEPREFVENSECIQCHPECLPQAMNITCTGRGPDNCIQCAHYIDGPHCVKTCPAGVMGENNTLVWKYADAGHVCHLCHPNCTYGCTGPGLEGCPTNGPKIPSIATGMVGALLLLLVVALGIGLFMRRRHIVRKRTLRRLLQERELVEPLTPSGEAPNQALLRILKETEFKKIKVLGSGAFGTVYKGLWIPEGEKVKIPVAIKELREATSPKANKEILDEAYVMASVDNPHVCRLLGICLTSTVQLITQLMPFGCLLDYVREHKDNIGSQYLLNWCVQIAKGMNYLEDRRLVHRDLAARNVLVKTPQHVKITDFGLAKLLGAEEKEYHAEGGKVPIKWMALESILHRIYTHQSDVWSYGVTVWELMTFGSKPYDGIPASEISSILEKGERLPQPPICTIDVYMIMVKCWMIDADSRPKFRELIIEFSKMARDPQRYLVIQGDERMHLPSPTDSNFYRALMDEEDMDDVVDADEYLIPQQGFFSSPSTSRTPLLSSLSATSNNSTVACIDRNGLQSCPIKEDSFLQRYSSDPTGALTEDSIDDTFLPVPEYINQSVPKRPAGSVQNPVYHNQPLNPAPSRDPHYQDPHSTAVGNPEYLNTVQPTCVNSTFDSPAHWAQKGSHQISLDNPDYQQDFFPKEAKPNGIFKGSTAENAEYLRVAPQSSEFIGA

As for `CN(CC(N)=O)Cc1ccc(-c2cc3c(Nc4ccc(OCc5ccccc5)cc4)ncnc3cn2)o1` [Example 8, 2-((5-(4-(4-Benzyloxy-phenylamino)-pyrido[3,4-d]pyrimidin-6-yl)-furan-2-ylmethyl)-methylamino)-acetamide], the IC50 was determined as 0.72 µM in [1]; 0.011 µM in experiment [2]; 0.16 µM in experiment [3]; 0.1 µM in experiment [4]; 41 µM in [5]; 0.38 µM in experiment [6]. The IC50 in [7] worked out at 0.06 µM; in [8], 0.34 µM; in experiment [9] it was 0.35 µM.
